Legend:
pigweed [1] = test: Test A preemergence; assay type: in vivo, Amaranthus retroflexus
In short: (§1)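 Visual injury scored 0–100 (100 = complete control) against untreated controls about 10 days after treatment in a greenhouse. Test chemicals, formulated with surfactant in non-phytotoxic solvent, were sprayed on soil preemergence or on 2-10 cm, one- to two-leaf plants postemergence.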

barnyardgrass [2] = test: Test A postemergence; assay type: in vivo, Echinochloa crus-galli
In short: as §1

pigweed [3] = test: Test A postemergence; assay type: in vivo, Amaranthus retroflexus; conditions: 0 to 100 scale where 0 is no effect and 100 is complete control
In short: as §1

rice = test: Test B flooded paddy test; assay type: in vivo, Oryza sativa; conditions: Flood, 250 g ai/ha, 0 to 100 scale where 0 is no effect and 100 is complete control
In short: (§2)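 Plants were grown to the 2-leaf stage, then pots were flooded to 3 cm above the soil and compounds were applied directly into the paddy water. That depth was held throughout, and after 13 to 15 days in the greenhouse injury was rated visually against controls on a 0–100 scale (0 no effect, 100 complete control).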

barnyardgrass [4] = test: Test B flooded paddy test; assay type: in vivo, Echinochloa crus-galli; conditions: Flood, 250 g ai/ha, 0 to 100 scale where 0 is no effect and 100 is complete control
In short: as §2

wheat, winter = test: Test C preemergence; assay type: in vivo, Triticum aestivum
In short: (§3)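 Preemergence: seeds sown in a loam soil–sand blend and sprayed with test chemical in a non-phytotoxic solvent mixture containing surfactant. Postemergence: plants at 2 to 18 cm (1- to 4-leaf stage) in peat-based medium, treated with the same formulation. Greenhouse 13 to 15 days, then visual rating 0 (no effect) to 100 (complete control).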

morningglory = test: Test C preemergence; assay type: in vivo, Ipomoea coccinea
In short: as §3

soybean = test: Test C preemergence; assay type: in vivo, Glycine max
In short: as §3

barnyardgrass [5] = test: Test C preemergence; assay type: in vivo, Echinochloa crus-galli
In short: as §3

waterhemp = test: Test C preemergence; assay type: in vivo, Amaranthus rudis
In short: as §3

blackgrass = test: Test C postemergence; assay type: in vivo, Alopecurus myosuroides
In short: as §3

large (Lg) crabgrass = test: Test C postemergence; assay type: in vivo, Digitaria sanguinalis
In short: as §3

ragweed = test: Test C postemergence; assay type: in vivo, Ambrosia elatior
In short: as §3

[6] = 125 g ai/ha, 0 to 100 scale where 0 is no effect and 100 is complete control
[7] = 16 g ai/ha, preemergence, scale 0 to 100 (0 no effect, 100 complete control)
[8] = 62 g ai/ha, preemergence, scale 0 (no effect) to 100 (complete control)
[9] = 125 g ai/ha, preemergence, scale 0 (no effect) to 100 (complete control)
[10] = Preemergence, 31 g ai/ha, scale 0 to 100, 0 no effect, 100 complete control
[11] = 16 g ai/ha, postemergence, visual rating, scale 0 to 100 (0 no effect, 100 complete control), 13 to 15 days
[12] = Postemergence, 31 g ai/ha, scale 0 to 100 (0 no effect, 100 complete control), 13 to 15 days
[13] = Postemergence, 62 g ai/ha, scale 0 to 100 (0 no effect, 100 complete control)

FC(F)(F)Sc1cnn(-c2ccccc2Oc2ncc(Cl)cn2)c1 [Compound 132, 5-chloro-2-[2-[4-(trifluoromethylthio)-1H-pyrazol-1-yl]phenoxy]pyrimidine]
pest or weed control at 125 g/ha (pigweed [1]; Amaranthus retroflexus, pre-emergence, 125 g ai/ha, 0 to 100 scale where 0 is no effect and 100 is complete control, read-out: Plant response rating, Pigweed): 100% | pest or weed control at 500 g/ha (pigweed [1]; Amaranthus retroflexus, pre-emergence, 240 h, 500 g ai/ha, 0 to 100 scale where 0 is no effect and 100 is complete control, read-out: Pigweed plant response rating): 100% | pest or weed control at 125 g/ha (barnyardgrass [2]; Echinochloa crus-galli, post-emergence, 240 h, 125 g ai/ha, 0 to 100 scale where 0 is no effect and 100 is complete control, read-out: Barnyardgrass plant response rating): 50% | pest or weed control at 500 g/ha (barnyardgrass [2]; Echinochloa crus-galli, post-emergence, 240 h, 500 g ai/ha, 0 to 100 scale where 0 is no effect and 100 is complete control, read-out: Plant response rating, Barnyardgrass): 70% | pest or weed control at 500 g/ha (pigweed [3]; Amaranthus retroflexus, post-emergence, 500 g ai/ha, read-out: Plant response rating, Pigweed): 100% | pest or weed control at 125 g/ha (pigweed [3]; Amaranthus retroflexus, post-emergence, 240 h, 125 g ai/ha, read-out: Pigweed plant response rating): 100% | plant injury at 250 g/ha (rice; Oryza sativa, read-out: Plant response rating, Rice): 0% | pest or weed control at 250 g/ha (barnyardgrass [4]; Echinochloa crus-galli, read-out: Plant response rating, Barnyardgrass): 0% | plant injury at 16 g/ha (wheat, winter; Triticum aestivum, pre-emergence, 16 g ai/ha, preemergence, scale 0 to 100 (0 no effect, 100 complete control), read-out: Wheat plant response rating): 0% | plant injury at 62 g/ha (wheat, winter; Triticum aestivum, pre-emergence, 62 g ai/ha, preemergence, scale 0 (no effect) to 100 (complete control), read-out: Wheat plant response rating): 0% | plant injury at 125 g/ha (wheat, winter; Triticum aestivum, pre-emergence, 125 g ai/ha, preemergence, scale 0 (no effect) to 100 (complete control), read-out: Wheat plant response rating): 0% | plant injury at 31 g/ha (wheat, winter; Triticum aestivum, pre-emergence, Preemergence, 31 g ai/ha, scale 0 to 100, 0 no effect, 100 complete control, read-out: Plant response rating, Wheat): 0% | pest or weed control at 16 g/ha (morningglory; Ipomoea, pre-emergence, 16 g ai/ha, preemergence, scale 0 to 100 (0 no effect, 100 complete control), read-out: Morningglory plant response rating): 25% | pest or weed control at 62 g/ha (morningglory; Ipomoea, pre-emergence, 62 g ai/ha, preemergence, scale 0 (no effect) to 100 (complete control), read-out: Morningglory plant response rating): 5% | pest or weed control at 125 g/ha (morningglory; Ipomoea, pre-emergence, 125 g ai/ha, preemergence, scale 0 (no effect) to 100 (complete control), read-out: Morningglory plant response rating): 5% | pest or weed control at 31 g/ha (morningglory; Ipomoea, pre-emergence, Preemergence, 31 g ai/ha, scale 0 to 100, 0 no effect, 100 complete control, read-out: Plant response rating, Morningglory): 0% | plant injury at 16 g/ha (soybean; Glycine max, pre-emergence, 16 g ai/ha, preemergence, scale 0 to 100 (0 no effect, 100 complete control), read-out: Soybean plant response rating): 0% | plant injury at 62 g/ha (soybean; Glycine max, pre-emergence, 62 g ai/ha, preemergence, scale 0 (no effect) to 100 (complete control), read-out: Soybean plant response rating): 5% | plant injury at 125 g/ha (soybean; Glycine max, pre-emergence, 125 g ai/ha, preemergence, scale 0 (no effect) to 100 (complete control), read-out: Soybean plant response rating): 55% | plant injury at 31 g/ha (soybean; Glycine max, pre-emergence, Preemergence, 31 g ai/ha, scale 0 to 100, 0 no effect, 100 complete control, read-out: Plant response rating, Soybean): 0% | pest or weed control at 16 g/ha (barnyardgrass [5]; Echinochloa crus-galli, pre-emergence, 16 g ai/ha, preemergence, scale 0 to 100 (0 no effect, 100 complete control), read-out: Barnyardgrass plant response rating): 0% | pest or weed control at 62 g/ha (barnyardgrass [5]; Echinochloa crus-galli, pre-emergence, 62 g ai/ha, preemergence, scale 0 (no effect) to 100 (complete control), read-out: Barnyardgrass plant response rating): 10% | pest or weed control at 125 g/ha (barnyardgrass [5]; Echinochloa crus-galli, pre-emergence, 125 g ai/ha, preemergence, scale 0 (no effect) to 100 (complete control), read-out: Barnyardgrass plant response rating): 75% | pest or weed control at 31 g/ha (barnyardgrass [5]; Echinochloa crus-galli, pre-emergence, Preemergence, 31 g ai/ha, scale 0 to 100, 0 no effect, 100 complete control, read-out: Plant response rating, Barnyardgrass): 0% | pest or weed control at 16 g/ha (waterhemp; Amaranthus tuberculatus, pre-emergence, 16 g ai/ha, preemergence, scale 0 to 100 (0 no effect, 100 complete control), read-out: Waterhemp plant response rating): 85% | pest or weed control at 62 g/ha (waterhemp; Amaranthus tuberculatus, pre-emergence, 62 g ai/ha, preemergence, scale 0 (no effect) to 100 (complete control), read-out: Waterhemp plant response rating): 100% | pest or weed control at 125 g/ha (waterhemp; Amaranthus tuberculatus, pre-emergence, 125 g ai/ha, preemergence, scale 0 (no effect) to 100 (complete control), read-out: Waterhemp plant response rating): 100% | pest or weed control at 31 g/ha (waterhemp; Amaranthus tuberculatus, pre-emergence, Preemergence, 31 g ai/ha, scale 0 to 100, 0 no effect, 100 complete control, read-out: Plant response rating, Waterhemp): 98% | pest or weed control at 16 g/ha (blackgrass; Alopecurus myosuroides, post-emergence, 16 g ai/ha, postemergence, 0 is no effect, 100 is complete control, read-out: Plant response rating (0 to 100), Blackgrass): 5% | pest or weed control at 125 g/ha (blackgrass; Alopecurus myosuroides, post-emergence, 125 g ai/ha, postemergence, visual rating, scale 0 to 100 (0 no effect, 100 complete control), read-out: Plant response rating, Blackgrass): 5% | pest or weed control at 31 g/ha (blackgrass; Alopecurus myosuroides, post-emergence, Postemergence, 31 g ai/ha, scale 0 to 100 (0 no effect, 100 complete control), 13 to 15 days, read-out: Plant response rating, Blackgrass): 5% | pest or weed control at 62 g/ha (blackgrass; Alopecurus myosuroides, post-emergence, Postemergence, 62 g ai/ha, scale 0 to 100 (0 no effect, 100 complete control), read-out: Plant response rating, Blackgrass): 10% | pest or weed control at 16 g/ha (large (Lg) crabgrass; Digitaria sanguinalis, post-emergence, 16 g ai/ha, postemergence, 0 is no effect, 100 is complete control, read-out: Plant response rating (0 to 100), Crabgrass, Large): 5% | pest or weed control at 125 g/ha (large (Lg) crabgrass; Digitaria sanguinalis, post-emergence, 125 g ai/ha, postemergence, visual rating, scale 0 to 100 (0 no effect, 100 complete control), read-out: Plant response rating, Crabgrass, Large): 10% | pest or weed control at 62 g/ha (large (Lg) crabgrass; Digitaria sanguinalis, post-emergence, Postemergence, 62 g ai/ha, scale 0 to 100 (0 no effect, 100 complete control), read-out: Plant response rating, Crabgrass, Large): 5% | pest or weed control at 16 g/ha (ragweed; Ambrosia artemisiifolia, post-emergence, 16 g ai/ha, postemergence, 0 is no effect, 100 is complete control, read-out: Plant response rating (0 to 100), Ragweed): 0% | pest or weed control at 125 g/ha (ragweed; Ambrosia artemisiifolia, post-emergence, 125 g ai/ha, postemergence, visual rating, scale 0 to 100 (0 no effect, 100 complete control), read-out: Plant response rating, Ragweed): 35% | pest or weed control at 62 g/ha (ragweed; Ambrosia artemisiifolia, post-emergence, Postemergence, 62 g ai/ha, scale 0 to 100 (0 no effect, 100 complete control), read-out: Plant response rating, Ragweed): 10%

CCOc1cn(-c2c(Br)cccc2Oc2ncc(Cl)cn2)nn1 [Compound 84]
Plant response rating, Pigweed (pigweed [1]; [6]): 100 | Pigweed plant response rating (pigweed [1]; 500 g ai/ha, 0 to 100 scale, 0 no effect, 100 complete control, approx. 10 days): 100 | Plant response rating, Barnyardgrass (barnyardgrass [2]; [6]): 70 | Plant response rating, Barnyardgrass (barnyardgrass [2]; 500 g ai/ha, 0 to 100 scale, 0 no effect, 100 complete control): 100 | Plant response rating, Pigweed (pigweed [3]; 125 g ai/ha): 100 | Plant response rating, Pigweed (pigweed [3]; 500 g ai/ha): 100 | Plant response rating, Rice (rice): 0 | Plant response rating, Barnyardgrass (barnyardgrass [4]): 0 | Wheat plant response rating (wheat, winter; [7]): 0 | Wheat plant response rating (wheat, winter; [8]): 0 | Wheat plant response rating (wheat, winter; [9]): 0 | Plant response rating, Wheat (wheat, winter; [10]): 0 | Morningglory plant response rating (morningglory; [7]): 0 | Morningglory plant response rating (morningglory; [8]): 25 | Morningglory plant response rating (morningglory; [9]): 100 | Plant response rating, Morningglory (morningglory; [10]): 10 | Soybean plant response rating (soybean; [7]): 0 | Soybean plant response rating (soybean; [8]): 60 | Soybean plant response rating (soybean; [9]): 70 | Plant response rating, Soybean (soybean; [10]): 20 | Barnyardgrass plant response rating (barnyardgrass [5]; [7]): 0 | Barnyardgrass plant response rating (barnyardgrass [5]; [8]): 40 | Barnyardgrass plant response rating (barnyardgrass [5]; [9]): 85 | Plant response rating, Barnyardgrass (barnyardgrass [5]; [10]): 25 | Waterhemp plant response rating (waterhemp; [7]): 100 | Waterhemp plant response rating (waterhemp; [8]): 100 | Waterhemp plant response rating (waterhemp; [9]): 100 | Plant response rating, Waterhemp (waterhemp; [10]): 75 | Blackgrass plant response rating (blackgrass; [11]): 5 | Plant response rating (0 to 100), Blackgrass (blackgrass; 125 g ai/ha, postemergence): 20 | Plant response rating, Blackgrass (blackgrass; [12]): 5 | Plant response rating, Blackgrass (blackgrass; [13]): 5 | Crabgrass, Large plant response rating (large (Lg) crabgrass; [11]): 5 | Plant response rating (0 to 100), Crabgrass, Large (large (Lg) crabgrass; 125 g ai/ha, postemergence): 30 | Plant response rating, Crabgrass, Large (large (Lg) crabgrass; [12]): 5 | Plant response rating, Crabgrass, Large (large (Lg) crabgrass; [13]): 5 | Plant response rating (0 to 100), Ragweed (ragweed; 125 g ai/ha, postemergence): 80 | Plant response rating, Ragweed (ragweed; [12]): 10 | Plant response rating, Ragweed (ragweed; [13]): 40

— patent US9695155B2, “Herbicidal substituted pyrimidinyloxy benzene compounds” (E. I. DU PONT DE NEMOURS AND COMPANY, priority 2013, dated 2017)
